Patent US20070021434A1, “NON-NUCLEOSIDE ANTI-HEPACIVIRUS AGENTS AND USES THEREOF” (Migenix Inc., priority 2005, published 2007)
Peptide text beside a SMILES is read from it. * marks the point of attachment. Fmoc = O=C(OCC1c2ccccc2-c2ccccc21)*; Boc = CC(C)(C)OC(=O)*

Target: HCV RdRp (NS5B) (UniProt P26663)
Type: biochemical, hepatitis C virus

Chain of HCV RdRp (NS5B) (P26663 whole entry, looked up): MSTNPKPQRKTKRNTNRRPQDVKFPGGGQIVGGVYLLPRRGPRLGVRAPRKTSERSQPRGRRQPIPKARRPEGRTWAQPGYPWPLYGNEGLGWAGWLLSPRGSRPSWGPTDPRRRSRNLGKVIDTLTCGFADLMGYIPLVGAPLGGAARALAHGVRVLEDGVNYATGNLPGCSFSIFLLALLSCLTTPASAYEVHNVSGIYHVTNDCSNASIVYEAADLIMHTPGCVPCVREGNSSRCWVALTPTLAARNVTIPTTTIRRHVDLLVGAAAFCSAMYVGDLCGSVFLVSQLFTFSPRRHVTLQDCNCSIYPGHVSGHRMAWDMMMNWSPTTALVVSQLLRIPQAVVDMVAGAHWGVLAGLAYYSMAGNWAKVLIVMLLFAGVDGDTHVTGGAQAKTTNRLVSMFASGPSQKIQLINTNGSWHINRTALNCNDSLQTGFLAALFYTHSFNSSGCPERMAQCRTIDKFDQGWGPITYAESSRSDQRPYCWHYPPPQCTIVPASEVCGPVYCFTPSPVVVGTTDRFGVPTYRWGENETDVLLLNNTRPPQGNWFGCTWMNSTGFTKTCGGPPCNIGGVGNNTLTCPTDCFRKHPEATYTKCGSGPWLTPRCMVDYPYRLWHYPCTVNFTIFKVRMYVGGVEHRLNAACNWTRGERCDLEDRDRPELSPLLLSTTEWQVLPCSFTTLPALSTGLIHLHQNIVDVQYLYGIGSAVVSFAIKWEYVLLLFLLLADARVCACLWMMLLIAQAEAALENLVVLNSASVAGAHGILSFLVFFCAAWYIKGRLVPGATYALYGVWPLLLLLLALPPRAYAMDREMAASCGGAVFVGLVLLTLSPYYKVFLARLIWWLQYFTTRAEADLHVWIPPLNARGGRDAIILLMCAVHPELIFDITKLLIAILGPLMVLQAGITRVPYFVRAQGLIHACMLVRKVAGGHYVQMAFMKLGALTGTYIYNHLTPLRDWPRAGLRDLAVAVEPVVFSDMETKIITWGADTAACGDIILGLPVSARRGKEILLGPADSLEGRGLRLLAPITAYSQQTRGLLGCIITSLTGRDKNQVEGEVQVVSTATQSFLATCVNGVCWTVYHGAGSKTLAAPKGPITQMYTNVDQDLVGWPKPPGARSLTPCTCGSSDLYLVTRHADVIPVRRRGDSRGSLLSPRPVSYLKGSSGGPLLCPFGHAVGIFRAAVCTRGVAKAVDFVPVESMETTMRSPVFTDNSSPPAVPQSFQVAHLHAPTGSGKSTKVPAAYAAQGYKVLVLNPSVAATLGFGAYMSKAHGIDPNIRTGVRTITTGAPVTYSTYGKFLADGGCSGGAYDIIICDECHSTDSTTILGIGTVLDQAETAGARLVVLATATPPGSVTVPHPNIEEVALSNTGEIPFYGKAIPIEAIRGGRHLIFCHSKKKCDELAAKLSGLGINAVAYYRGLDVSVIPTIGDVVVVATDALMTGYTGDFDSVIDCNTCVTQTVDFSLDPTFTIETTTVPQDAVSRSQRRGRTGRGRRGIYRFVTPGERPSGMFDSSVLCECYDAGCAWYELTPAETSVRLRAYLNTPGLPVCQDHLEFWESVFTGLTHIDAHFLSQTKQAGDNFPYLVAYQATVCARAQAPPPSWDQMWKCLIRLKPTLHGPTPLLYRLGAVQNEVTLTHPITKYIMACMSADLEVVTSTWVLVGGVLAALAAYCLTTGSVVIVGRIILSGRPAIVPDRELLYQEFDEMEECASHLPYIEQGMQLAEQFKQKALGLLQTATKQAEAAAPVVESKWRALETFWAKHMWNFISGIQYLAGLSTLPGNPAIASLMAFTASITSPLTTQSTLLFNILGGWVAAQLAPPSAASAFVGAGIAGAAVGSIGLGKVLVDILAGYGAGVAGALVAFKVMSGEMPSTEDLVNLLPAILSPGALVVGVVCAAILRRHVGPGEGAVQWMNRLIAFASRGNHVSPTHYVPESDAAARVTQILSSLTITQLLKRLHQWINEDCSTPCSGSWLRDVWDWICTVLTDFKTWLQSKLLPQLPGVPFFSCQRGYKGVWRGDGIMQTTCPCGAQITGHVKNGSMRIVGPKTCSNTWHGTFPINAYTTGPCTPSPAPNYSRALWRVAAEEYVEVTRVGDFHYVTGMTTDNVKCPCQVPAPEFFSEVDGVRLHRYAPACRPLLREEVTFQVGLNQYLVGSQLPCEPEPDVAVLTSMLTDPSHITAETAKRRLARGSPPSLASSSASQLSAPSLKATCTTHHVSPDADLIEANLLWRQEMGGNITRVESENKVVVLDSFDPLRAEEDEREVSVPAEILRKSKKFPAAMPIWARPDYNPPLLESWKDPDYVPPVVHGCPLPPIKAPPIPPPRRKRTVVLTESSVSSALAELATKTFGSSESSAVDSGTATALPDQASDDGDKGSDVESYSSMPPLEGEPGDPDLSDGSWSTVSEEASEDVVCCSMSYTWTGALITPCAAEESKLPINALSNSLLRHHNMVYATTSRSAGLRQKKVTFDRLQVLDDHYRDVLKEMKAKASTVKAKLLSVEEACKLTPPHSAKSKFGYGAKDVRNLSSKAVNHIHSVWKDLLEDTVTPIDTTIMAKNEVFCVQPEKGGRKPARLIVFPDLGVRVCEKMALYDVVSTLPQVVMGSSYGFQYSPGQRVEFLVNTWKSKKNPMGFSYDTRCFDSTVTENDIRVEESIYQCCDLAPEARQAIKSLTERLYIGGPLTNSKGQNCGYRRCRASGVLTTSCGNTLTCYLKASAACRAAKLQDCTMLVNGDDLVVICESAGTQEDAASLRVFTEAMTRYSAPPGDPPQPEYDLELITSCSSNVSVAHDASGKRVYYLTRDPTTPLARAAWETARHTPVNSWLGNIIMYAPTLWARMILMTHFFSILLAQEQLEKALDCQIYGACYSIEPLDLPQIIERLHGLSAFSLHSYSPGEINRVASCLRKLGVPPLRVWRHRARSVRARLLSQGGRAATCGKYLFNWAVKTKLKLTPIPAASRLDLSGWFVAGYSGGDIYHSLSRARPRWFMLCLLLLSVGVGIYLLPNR

Cc1ccc(NC(=O)[C@@H](CCCCN)NC(=O)OCC2c3ccccc3-c3ccccc32)cc1 [Compound 20, (S)-(5-AMINO-1-P-TOLYLCARBAMOYL-PENTYL)-CARBAMIC ACID 9H-FLUOREN-9-YLMETHYL ESTER]
IC50: 10 to 50 µM

NCCCC[C@H](NC(=O)[C@@H](N)Cc1c[nH]c2ccccc12)C(=O)Nc1ccc(CN(C(=O)c2ccco2)C2CCCCC2)cc1 [Compound 23, (S)-FURAN-2-CARBOXYLIC ACID (4-{6-AMINO-2-[2-(S)-AMINO-3-(1H-INDOL-3-YL)-PROPIONYLAMINO]-HEXANOYLAMINO}-BENZYL)-CYCLOHEXYL-AMIDE]
IC50: 10 to 50 µM

NCCCC[C@H](NC(=O)c1cccc2ccccc12)C(=O)Nc1ccc(CN(C(=O)c2ccco2)C2CCCCC2)cc1 [Compound 24, (S)-FURAN-2-CARBOXYLIC ACID (4-{6-AMINO-2-[(NAPHTHALENE-1-CARBONYL)-AMINO]-HEXANOYLAMINO}-BENZYL)-CYCLOHEXYL-AMIDE]
IC50: 10 to 50 µM

NCCCC[C@H](NC(=O)c1ccccc1)C(=O)Nc1ccc(CN(C(=O)c2ccco2)C2CCCCC2)cc1 [Compound 27, (S)-FURAN-2-CARBOXYLIC ACID [4-(6-AMINO-2-BENZOYLAMINO-HEXANOYLAMINO)-BENZYL]-CYCLOHEXYL-AMIDE]
IC50: > 50 µM

CC[C@H](NC(=O)OCC1c2ccccc2-c2ccccc21)C(=O)Nc1ccc(CN(C(=O)c2ccco2)C2CCCCC2)cc1 [Compound 28, (S)-[1-(4-{[CYCLOHEXYL-(FURAN-2-CARBONYL)-AMINO]-METHYL}-PHENYLCARBAMOYL)-PROPYL]-CARBAMIC ACID 9H-FLUOREN-9-YLMETHYL ESTER]
IC50: > 50 µM

O=C(N[C@@H](Cc1ccccc1)C(=O)Nc1ccc(CN(C(=O)c2ccco2)C2CCCCC2)cc1)OCC1c2ccccc2-c2ccccc21 [Compound 29, (S)-[1-(4-{[CYCLOHEXYL-(FURAN-2-CARBONYL)-AMINO]-METHYL}-PHENYL CARBAMOYL)-2-PHENYL-ETHYL]-CARBAMIC ACID 9H-FLUOREN-9-YLMETHYL ESTER]
IC50: > 50 µM

COC(=O)[C@H](Cc1c[nH]c2ccccc12)NC(=O)[C@H](CCCCNC(=O)OC(C)(C)C)NC(=O)OCC1c2ccccc2-c2ccccc21 [Compound 30, (S)-2-[6-TERT-BUTOXYCARBONYLAMINO-2-(S)-((9H-FLUOREN-9-YLMETHOXYCARBONYL)AMINO)-HEXANOYL-AMINO]-3-(1H-INDOL-3-YL)-PROPIONIC ACID METHYL ESTER] (Fmoc-Lys(Boc)-Trp-OMe)
IC50: > 50 µM

NCCCC[C@H](NC(=O)Nc1cccc2ccccc12)C(=O)Nc1ccc(CN(C(=O)c2ccco2)C2CCCCC2)cc1 [Compound 31, (S)-FURAN-2-CARBOXYLIC ACID {4-[6-AMINO-2-(3-NAPHTHALEN-1-YL-UREIDO)-HEXANOYLAMINO]-BENZYL}-CYCLOHEXYL-AMIDE]
IC50: 10 to 50 µM

NCCCC[C@@H](NC(=O)Nc1cccc2ccccc12)C(=O)Nc1ccc(CN(C(=O)c2ccco2)C2CCCCC2)cc1 [Compound 32, (R)-FURAN-2-CARBOXYLIC ACID {4-[6-AMINO-2-(3-NAPHTHALEN-1-YL-UREIDO)-HEXANOYLAMINO]-BENZYL}-CYCLOHEXYL-AMIDE]
IC50: > 50 µM

NCCCC[C@H](NC(=O)OCC1c2ccccc2-c2ccccc21)C(=O)N(Cc1ccccc1)C1CCCCC1 [Compound 33, (S)-[5-AMINO-1-(BENZYL-CYCLOHEXYL-CARBAMOYL)-PENTYL]-CARBAMIC ACID 9H-FLUOREN-9-YLMETHYL ESTER]
IC50: 10 to 50 µM

CC(C)(C)OC(=O)NCCCC[C@H](N)C(=O)N(Cc1ccccc1)C1CCCCC1 [Compound 34, (S)-[5-AMINO-5-(BENZYL-CYCLOHEXYL-CARBAMOYL)-PENTYL]-CARBAMIC ACID TERT-BUTYL ESTER]
IC50: 10 to 50 µM

N[C@@H](Cc1c[nH]c2ccccc12)C(=O)NCCCC[C@H](NC(=O)OCC1c2ccccc2-c2ccccc21)C(=O)Nc1ccc(CN(C(=O)c2ccco2)C2CCCCC2)cc1 [Compound 35, (S)-[5-[2-(S)-AMINO-3-(1H-INDOL-3-YL)-PROPIONYLAMINO]-1-(4-{[CYCLOHEXYL-(FURAN-2-CARBONYL)-AMINO]-METHYL}-PHENYLCARBAMOYL)-PENTYL]-CARBAMIC ACID 9H-FLUOREN-9-YLMETHYL ESTER]
IC50: < 10 µM

Cc1ccc(NC(=O)C(CCCCN)NC(=O)OCC2c3ccccc3-c3ccccc32)cc1 [Compound 36, (R)-(5-AMINO-1-P-TOLYLCARBAMOYL-PENTYL)-CARBAMIC ACID 9H-FLUOREN-9-YLMETHYL ESTER]
IC50: 10 to 50 µM

CCCC[C@H](NC(=O)OCC1c2ccccc2-c2ccccc21)C(=O)Nc1ccc(CN(C(=O)c2ccco2)C2CCCCC2)cc1 [Compound 37, (S)-[1-(4-{[CYCLOHEXYL-(FURAN-2-CARBONYL)-AMINO]-METHYL}-PHENYLCARBAMOYL)-PENTYL]-CARBAMIC ACID 9H-FLUOREN-9-YLMETHYL ESTER]
IC50: > 50 µM

Cc1cc2cc(NC(=O)C(CCCCN)NC(=O)OCC3c4ccccc4-c4ccccc43)ccc2[nH]1 [Compound 38, (S)-[5-AMINO-1-(2-METHYL-1H-INDOL-5-YLCARBAMOYL)-PENTYL]-CARBAMIC ACID 9H-FLUOREN-9-YL METHYL ESTER]
IC50: 10 to 50 µM

CC(C)(NC(=O)OCC1c2ccccc2-c2ccccc21)C(=O)Nc1ccc(C=CC(=O)O)cc1 [Compound 39, 3-{4-[2-((9H-FLUOREN-9-YLMETHOXYCARBONYL)AMINO)-2-METHYL-PROPIONYLAMINO]-PHENYL}-ACRYLIC ACID]
IC50: > 50 µM

Cc1ccc(NC(=O)C(CCCCN)NC(=O)Nc2ccc(-c3ccccc3)cc2)cc1 [Compound 40, (S)-6-AMINO-2-(3-BIPHENYL-4-YL-UREIDO)-HEXANOIC ACID P-TOLYLAMIDE]
IC50: 10 to 50 µM

Cc1ccc(NC(=O)[C@H](CCCCN)NC(=O)Nc2ccc(Oc3ccccc3)cc2)cc1 [Compound 41, (S)-6-AMINO-2-[3-(4-PHENOXY-PHENYL)-UREIDO]-HEXANOIC ACID P-TOLYLAMIDE]
IC50: > 50 µM

Cc1ccc(NC(=O)C(CCCCN)NC(=O)Nc2ccc(C(F)(F)F)cc2)cc1 [Compound 42, (S)-6-AMINO-2-[3-(4-TRIFLUOROMETHYL-PHENYL)-UREIDO]-HEXANOIC ACID P-TOLYLAMIDE]
IC50: 10 to 50 µM

Cc1ccc(NC(=O)[C@H](CCCCN)NC(=O)Nc2ccc(F)cc2)cc1 [Compound 43, (S)-6-AMINO-2-[3-(4-FLUORO-PHENYL)-UREIDO]-HEXANOIC ACID P-TOLYLAMIDE]
IC50: > 50 µM

NCCCC[C@H](NC(=O)OCC1c2ccccc2-c2ccccc21)C(=O)Nc1ccc(F)cc1 [Compound 44, (S)-[5-AMINO-1-(4-FLUORO-PHENYLCARBAMOYL)-PENTYL]-CARBAMIC ACID 9H-FLUOREN-9-YLMETHYL ESTER]
IC50: > 50 µM

Cc1ccccc1NC(=O)C(CCCCN)NC(=O)OCC1c2ccccc2-c2ccccc21 [Compound 45, (S)-(5-AMINO-1-O-TOLYLCARBAMOYL-PENTYL)-CARBAMIC ACID 9H-FLUOREN-9-YLMETHYL ESTER]
IC50: > 50 µM

NCCCC[C@H](NC(=O)Cn1cnc2c(NC(=O)c3ccccc3)ncnc21)C(=O)Nc1ccc(CN(C(=O)c2ccco2)C2CCCCC2)cc1 [Compound 46, (S)-FURAN-2-CARBOXYLIC ACID (4-{6-AMINO-2-[2-(6-BENZOYLAMINO-PURIN-9-YL)-ACETYLAMINO]-HEXANOYLAMINO}-BENZYL)-CYCLOHEXYL-AMIDE]
IC50: 10 to 50 µM

Cc1cccc(NC(=O)[C@H](CCCCN)NC(=O)OCC2c3ccccc3-c3ccccc32)c1 [Compound 47, (S)-(5-AMINO-1-M-TOLYLCARBAMOYL-PENTYL)-CARBAMIC ACID 9H-FLUOREN-9-YLMETHYL ESTER]
IC50: > 50 µM

Cc1ccc(NC(=O)C(CCCCN)NC(=O)Cc2ccc3ccccc3c2)cc1 [Compound 48, (S)-6-AMINO-2-(2-NAPHTHALEN-2-YL-ACETYLAMINO)-HEXANOIC ACID P-TOLYLAMIDE]
IC50: > 50 µM

O=C(N[C@@H](Cc1c[nH]c2ccccc12)C(=O)N(Cc1ccccc1)C1CCCCC1)OCC1c2ccccc2-c2ccccc21 [Compound 49, (S)-[1-(BENZYL-CYCLOHEXYL-CARBAMOYL)-2-(1H-INDOL-3-YL)-ETHYL]-CARBAMIC ACID 9H-FLUOREN-9-YLMETHYL ESTER]
IC50: > 50 µM

Cc1ccc(NC(=O)C(CCCCN)NC(=O)Cc2ccc(-c3ccccc3)cc2)cc1 [Compound 50, (S)-6-AMINO-2-(2-BIPHENYL-4-YL-ACETYLAMINO)-HEXANOIC ACID P-TOLYLAMIDE]
IC50: > 50 µM

Cc1ccc(NC(=O)C(CCCCN)NC(=O)c2ccc3ccccc3c2)cc1 [Compound 51, (S)-NAPHTHALENE-2-CARBOXYLIC ACID (5-AMINO-1-P-TOLYLCARBAMOYL-PENTYL)-AMIDE]
IC50: > 50 µM

Cc1ccc(NC(=O)C(CCCCN)NC(=O)C2c3ccccc3-c3ccccc32)cc1 [Compound 52, (S)-9H-FLUORENE-9-CARBOXYLIC ACID (5-AMINO-1-P-TOLYLCARBAMOYL-PENTYL)-AMIDE]
IC50: > 50 µM

Cc1ccc(NC(=O)C(CCCCN)NC(=O)CC2c3ccccc3-c3ccccc32)cc1 [Compound 53, (S)-6-AMINO-2-(2-9H-FLUOREN-9-YL-ACETYLAMINO)-HEXANOIC ACID P-TOLYLAMIDE]
IC50: > 50 µM

Cc1ccc(NC(=O)C(CCCCN)NC(=O)c2ccccc2-c2ccccc2)cc1 [Compound 54, (S)-BIPHENYL-2-CARBOXYLIC ACID (5-AMINO-1-P-TOLYLCARBAMOYL-PENTYL)-AMIDE]
IC50: > 50 µM

CC(C)(C)OC(=O)NCCCC[C@H](NC(=O)OCC1c2ccccc2-c2ccccc21)C(=O)NCCc1c[nH]c2ccccc12 [Compound 56, (S)-{5-((9H-FLUOREN-9-YLMETHOXYCARBONYL)AMINO)-5-[2-(1H-INDOL-3-YL)-ETHYLCARBAMOYL]-PENTYL}-CARBAMIC ACID TERT-BUTYL ESTER]
IC50: > 50 µM

NCCCC[C@H](NC(=O)OCC1c2ccccc2-c2ccccc21)C(=O)NCCc1c[nH]c2ccccc12 [Compound 57, (S)-{5-AMINO-1-[2-(1H-INDOL-3-YL)-ETHYLCARBAMOYL]-PENTYL}-CARBAMIC ACID 9H-FLUOREN-9-YLMETHYL ESTER]
IC50: > 50 µM

COC(=O)[C@H](Cc1c[nH]c2ccccc12)NC(=O)C(CCCCN)NC(=O)OCC1c2ccccc2-c2ccccc21 (stereo partly drawn) [Compound 58, (S)-2-[6-AMINO-2-((9H-FLUOREN-9-YLMETHOXYCARBONYL)AMINO)-HEXANOYL-(R)-AMINO]-3-(1H-INDOL-3-YL)-PROPIONIC ACID METHYL ESTER]
IC50: > 50 µM

CCOC(=O)C=Cc1ccc(NC(=O)[C@H](CCCCN)NC(=O)OCC2c3ccccc3-c3ccccc32)cc1 [Compound 59, (S)-3-{4-[6-AMINO-2-((9H-FLUOREN-9-YLMETHOXYCARBONYL)AMINO)-HEXANOYLAMINO]PHENYL}-ACRYLIC ACID ETHYL ESTER]
IC50: 10 to 50 µM
